Experimental data: the supplement of paper PMC10307832

Assays:
Assay in all cases: relative viability (nuclei count vs DMSO), 5 days (fraction); higher = more cells survive
GSK126 + Dasatinib = compound: CC[C@H](C)N1C=C(C2=C(C=C(C=C21)C3=CN=C(C=C3)N4CCNCC4)C(=O)NCC5=C(C=C(NC5=O)C)C)C [GSK126] + Cc1nc(Nc2ncc(C(=O)Nc3c(C)cccc3Cl)s2)cc(N2CCN(CCO)CC2)n1 [Dasatinib] (partner 0.075 µM)
In short: (§1)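 Nuclei were stained with Hoechst during a one-step fixation (final 0.05% Triton X-100, 1% formaldehyde, 1 ug/ml Hoechst) carried out 5 days after dosing, then counted on 4× images. The cells, lung cancer lines in 1536-well plates, had been dosed by pin tool the day after seeding with one drug alone or a fixed anchor-drug dose plus five library-drug doses (not always all listed) in √10 steps. Relative viability is the nuclei count in treated wells divided by that in vehicle wells, and each value is the median of duplicate plates.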

GSK126 + Trametinib = compound: CC[C@H](C)N1C=C(C2=C(C=C(C=C21)C3=CN=C(C=C3)N4CCNCC4)C(=O)NCC5=C(C=C(NC5=O)C)C)C [GSK126] + CC(=O)Nc1cccc(-n2c(=O)n(C3CC3)c(=O)c3c(Nc4ccc(I)cc4F)n(C)c(=O)c(C)c32)c1 [Trametinib] (partner 0.02 µM)
In short: as §1

Carboplatin + Lapatinib = compound: C1CC(C1)(C(=O)O)C(=O)O.[NH2-].[NH2-].[Pt+2] [Carboplatin] + CS(=O)(=O)CCNCc1ccc(-c2ccc3ncnc(Nc4ccc(OCc5cccc(F)c5)c(Cl)c4)c3c2)o1 [Lapatinib] (partner 2 µM)
In short: as §1

GSK126 + Lapatinib = compound: CC[C@H](C)N1C=C(C2=C(C=C(C=C21)C3=CN=C(C=C3)N4CCNCC4)C(=O)NCC5=C(C=C(NC5=O)C)C)C [GSK126] + CS(=O)(=O)CCNCc1ccc(-c2ccc3ncnc(Nc4ccc(OCc5cccc(F)c5)c(Cl)c4)c3c2)o1 [Lapatinib] (partner 2 µM)
In short: as §1

Cell Line | relative viability (GSK126 + Dasatinib; first compound 0.08 µM) | relative viability (GSK126 + Dasatinib; first compound 0.253 µM) | relative viability (GSK126 + Dasatinib; first compound 0.8 µM) | relative viability (GSK126 + Dasatinib; first compound 2.53 µM) | relative viability (GSK126 + Dasatinib; first compound 8 µM) | relative viability (GSK126 + Trametinib; first compound 0.08 µM) | relative viability (GSK126 + Trametinib; first compound 0.253 µM) | relative viability (GSK126 + Trametinib; first compound 0.8 µM) | relative viability (GSK126 + Trametinib; first compound 2.53 µM) | relative viability (GSK126 + Trametinib; first compound 8 µM) | relative viability (Carboplatin + Lapatinib; first compound 0.08 µM) | relative viability (Carboplatin + Lapatinib; first compound 0.253 µM) | relative viability (Carboplatin + Lapatinib; first compound 0.8 µM) | relative viability (Carboplatin + Lapatinib; first compound 2.53 µM) | relative viability (Carboplatin + Lapatinib; first compound 8 µM) | relative viability (GSK126 + Lapatinib; first compound 0.08 µM) | relative viability (GSK126 + Lapatinib; first compound 0.253 µM) | relative viability (GSK126 + Lapatinib; first compound 0.8 µM) | relative viability (GSK126 + Lapatinib; first compound 2.53 µM) | relative viability (GSK126 + Lapatinib; first compound 8 µM)
NCI-H1993 | 0.701 | 0.598 | 0.375 | 0.703 | 0.646 | 0.517 | 0.525 | 0.448 | 0.54 | 0.467 | 0.834 | 0.843 | 0.909 | 0.791 | 0.853 | 0.884 | 0.737 | 0.753 | 0.821 | 0.712
HCC-78 | 0.423 | 0.51 | 0.357 | 0.355 | 0.367 | 0.585 | 0.792 | 0.653 | 0.696 | 0.592 | 0.867 | 0.833 | 0.971 | 0.875 | 0.631 | 0.713 | 1.06 | 0.886 | 0.711 | 0.722
LU99A | 0.648 | 0.467 | 0.718 | 0.526 | 0.568 | 0.631 | 0.519 | 0.547 | 0.552 | 0.546 | 0.988 | 1.04 | 1.01 | 0.917 | 0.795 | 1.07 | 1 | 0.913 | 1 | 0.99
